Where “and” joins values, the source holds several entries; their conditions need not be identical. Identical values can stand only once. Like-named read-outs stand apart in the source and are kept apart here.
Tests used:
Notch signalling = assay: Notch reporter assay (12xCSL firefly luciferase / renilla luciferase, HEK293T Notch1ΔE reporter cell line clone #A1-11); assay type: cell-based; parameters: AUC Notch: scale not given here; settings: for Bottom (Emax): Emax indicated independent from assay constraints, in % (unit assumed); for AUC Notch: area under the 14-point dose-response curve
Excerpt: To identify novel Notch inhibitors in an unbiased manner, we generated a novel Notch reporter construct, which records the level of Notch signalling immediately downstream of receptor activation rather than further downstream in the signalling cascade, for example at the level of Hes and Hey proteins (Fig. 1B). […] The reporter construct carries piggy-bac sequences at both ends of the promoter-reporter cassette as well as cSH4 insulator elements to reduce transcriptional noise[21] and was transfected into HEK293T cells. To achieve a robust level of Notch receptor activity in the HEK293T reporter cell line and to confine the search for inhibitors to compounds affecting the receptor function and eliminating the need for ligand activation, a truncated ligand-independent version of the Notch1 receptor, mimicking an S2-cleaved Notch1 receptor (Notch1ΔE) and spontaneously activated by S3-cleavage[22] (Fig. 1C) was introduced into the cell line carrying the reporter construct (Fig. 1D). In addition, an HSV-TK-renilla luciferase plasmid was introduced into the cell line as an internal control for normalisation of the reporter expression (Fig. 1D).
A de novo Notch reporter construct, composed of six dimeric CSL binding sites linked to a basic b-globin promoter and followed by a firefly luciferase gene and a PEST degradation domain was synthesised (GeneArt). The construct was stably introduced into HEK293T cells, and zeocin (0.1 mg/ml) or Puromycin (0.05 mg/ml (ThermoFisher, cat #R25001, #A1113803) were used as selection markers. A clonal cell line (clone #A1) with robust renilla expression and enhanced firefly luciferase expression upon transient transfection of Notch1 ICD or Notch1ΔE constructs was selected, and a UB6 promoter-Notch1DE construct was stably introduced into this cell line using Blasticidin (0.1 mg/ml; ThermoFisher, cat #A1113903) as a selection marker. Stable cell lines were generated by serial dilution and only clonal colonies were selected for further evaluation. To measure luciferase reporter activity, cells were washed in cold PBS, detached, and collected in pre-warmed cell culture medium and centrifugated for five min at 200xg. The cell pellet was resuspended in medium, cells were counted, and 4,000 cells were seeded in each well of a white 384 well plate (Corning #3670) in 20 µl medium containing either DMSO or the GSI DAPT (N-[N-(3,5-Difluorophenacetyl)-L-alanyl]-S-phenylglycine t-butyl ester, Sigma-Aldrich, cat #565784-M) and incubated for 24 h. The efficacy of the reporter gene system was determined by monitoring the level of luciferase activation in the absence or presence of different amounts of DAPT in several cell clones. Luciferase activity was assessed using the dual-GLO luciferase detection kit from Promega (cat # E2920), following the manufacturer’s instructions. A minimum of two technical replicates were measured per clone using a SpectraMaxi3 plate reader (Molecular Devices). Reporter activity of different clones and in response to DAPT was assessed by normalising firefly (Notch activity) to renilla luciferase signals. Normalised signals of individual clones cultivated in DMSO were then compared to corresponding signals generated with DAPT-treated cells. The cell clone with the strongest signal to control ratio (DMSO to DAPT) was then selected for further exploration (clone #A1-11).
37,966 compounds were spotted by the compound center at SciLifeLab (https://www.scilifelab.se/) on a total of 120 plates (Greiner #781080) at a fixed concentration of 10 µM and the screening process spanned five consecutive sessions. The layout of each plate contained one column for DMSO and one for DAPT controls to determine the quality and reliability of the data. DAPT controls were spotted at 10 µM and DMSO was spotted in an equimolar volume. In addition, plates spotted with only DMSO were utilized to investigate the impact of plate effects before and after each session. […]

γ-secretase complex = γ-secretase complex (Homo sapiens, UniProt P49768); assay: APP-C99 counter assay (GSI reporter assay); assay type: cell-based; parameters: AUC APP: scale not given here; settings: for AUC APP: area under the 14-point dose-response curve, replicates averaged
Protocol: To this end, we used a previously established reporter gene-based GSI assay (APP-C99) (Fig. 3A), which measures γ-secretase activity through cleavage of amyloid precursor protein (APP), another protein processed by the γ-secretase complex[24]
Plasmids for APP and luciferase are described in[24] and the renilla plasmid described above generated for this project was used to normalize firefly values. 24 h post transfection cells were seeded on compound plates and cells were cultivated for 24 h before luciferase signals were read, as described.
Two-fold concentrations of compounds were diluted in 10 µl cell culture medium and brought to one-fold by seeding 10 µl containing 4000 cells of the respective cell type on each well of a 384-well plate, as described above. Analogous to the previous assays, all plates contained one DMSO and DAPT control column with the Notch reporter cell line (#A1-11) and a DMSO only and Notch inhibitor control plate was read before the measuring the screening plates. In addition, DAPT and DMSO were spotted in a dose response fashion, and a minimum of four replicates were read. Dose-responses of compounds were recorded in triplicates for each concentration reading out the dual luciferase reporters, as described above. Dose response assays were read together in one session. To measure compound effects, the different assays dose–response curves were fitted using the log(inhibitor) vs. response – Variable slope (model: Y = Bottom + (Top–Bottom)/(1 + 10^((LogIC50-X)*HillSlope)) equation.
A DMSO plate was read before measuring luciferase activity of compound spotted plates. APP firefly luciferase reporter assays were read with a signal integration time of 0.1 s, instead of 0.5 s used for the Notch reporter to reduce signal overlap between wells. […] The area-under-the-curve (AUC) was calculated on dose–response curves using Graphpad Prism.

[1] = 9p dose response, AUCs averaged when replicates available
[2] = 9p dose response, log10 of averaged IC50
[3] = 14p dose response, AUCs averaged when replicates available
[4] = overview in comparison to compound C, Supplemental Fig. 9
[5] = Homo sapiens, HEK-293T, 14p Notch assay DR, bottom constrained to Emax of positive control DAPT, read-out: approximated IC50
[6] = Homo sapiens, HEK-293T, 14p Notch assay DR, log10 value, bottom constrained to Emax of positive control DAPT, read-out: approximated LogIC50 (converted)
[7] = 14p APP assay DR, bottom constrained to Emax of positive control LY-411575

`NC(=O)[C@@H](CC1CC1)[C@@H](CCC(F)(F)F)C(=O)N[C@H]1N=C(c2ccccc2)c2cccc(F)c2NC1=O` [BMS-983970, reference compound] was tested, and the IC50 (Notch signalling; 9p dose response, single replicates, read-out: approximated IC50s 9p Notch reporter assay) was 1.2 nM, the “AUC 9p Notch reporter assay” value (Notch signalling; [1]) was 2.16E+02 and the IC50 (Notch signalling; 9p dose response, averaged over replicates, read-out: 9p Notch reporter assay averaged IC50s) was 1.2 nM. The “9p Notch reporter assay averaged IC50s (log)” value (Notch signalling; [2]) was -8.9, the IC50 (Notch signalling; 14-point, unit inferred, replicates averaged, read-out: approxiated IC50s 14p Notch reporter assay) was 3.6 nM and the “Bottom (Emax)” value (Notch signalling; 14p Notch assay DR) was 49.6 and 50.5 and 62.5. The IC50 (Notch signalling; 14p Notch assay DR, Notch inhibitor controls, no bottom constraint named, read-out: approximated IC50) was 3.6 nM and ~2.3 nM, the IC50 (Notch signalling; 14p Notch assay DR, averaged when replicate measurements were available, read-out: averaged IC50s) was 3.6 nM and the “approximated LogIC50 [M]” value (Notch signalling; 14p Notch assay DR, log10 value, Notch inhibitor controls, no bottom constraint named) was -8.5 M. The IC50 (Notch signalling; 14p dose response, single replicates, read-out: approximated IC50s 14p Notch reporter assay) was 3.6 nM and 3.5 nM, the “AUC 14p Notch reporter assay” value (Notch signalling; [3]) was 4.10E+02 and the IC50 (Notch signalling; 14p dose response, averaged over replicates, read-out: 14p Notch reporter assay averaged IC50s) was 3.6 nM. The “14p Notch reporter assay averaged IC50s (log)” value (Notch signalling; 14p dose response, log10 of averaged IC50) was -8.4, the “AUC Notch” value (Notch signalling; replicates averaged) was 410.0 and the Notch assay (Notch signalling; [4]) was “higher potency”. For the same compound, the “Hill-Slope 9p APP counter assay averaged” value (γ-secretase complex; 9p dose response) was -1.6, the “AUC 9p APP-counter assay” value (γ-secretase complex; [1]) was 2.41E+02 and the IC50 (γ-secretase complex; 9p dose response, averaged, read-out: 9p APP counter assay averaged IC50s) was 22 nM. The “9p APP counter assay averaged IC50s (log)” value (γ-secretase complex; [2]) was -7.7, the IC50 (γ-secretase complex; 9p dose response, read-out: approximated IC50s 9p APP counter assay) was 22 nM and the IC50 (γ-secretase complex; 14-point, unit inferred, some fits outside of tested concentration range, read-out: approximated IC50s 14p APP-counter assay) was 400 nM. For the same compound, the “Bottom (Emax)” value (γ-secretase complex; 14p APP assay DR, Emax indicated independent from assay constraints) was 45.9 and 48.3, the IC50 (γ-secretase complex; 14p APP assay DR, Notch inhibitor controls, no bottom constraint named, read-out: approximated IC50) was 44 nM and 70 nM and the “AUC. 14p APP-counter assay” value (γ-secretase complex; [3]) was 4.87E+02. For the same compound, the IC50 (γ-secretase complex; 14p dose response, averaged over replicates, read-out: 14p APP counter assay averaged IC50s) was 57 nM, the “AUC APP” value (γ-secretase complex) was 486.6 and the APP assay (γ-secretase complex; [4]) was “higher potency”.
`Cc1cc(O)n(-c2nc3ccccc3s2)n1` [CBK007453] was tested, and the “Bottom (Emax)” value (Notch signalling; 14p Notch assay DR) was 95.0, the IC50 (Notch signalling; Homo sapiens, HEK-293T, 14-point dose-response, Fig. 4, read-out: approximated IC50, Notch reporter assay) was over 40000 nM and the IC50 (Notch signalling; [5]) was over 40000 nM. The IC50 (Notch signalling; [6]) was over 40000 nM, the “AUC Notch” value (Notch signalling; replicates averaged) was 628.0 and the Hill-slope (γ-secretase complex; [7]) was -0.00928. The “AUC APP” value (γ-secretase complex) was 674.5.
With `Oc1cc(-c2ccccc2)nn1-c1nc2ccccc2s1` [CBK016481] the “approximated IC50, Notch reporter assay” value (Notch signalling; 14-point dose-response, Fig. 4) was “Indeterminate”, the “Bottom (Emax)” value (Notch signalling; 14p Notch assay DR) was 98.5 and the “AUC Notch” value (Notch signalling; replicates averaged) was 626.0. For the same compound, the Hill-slope (γ-secretase complex; [7]) was 0.00215 and the “AUC APP” value (γ-secretase complex) was 668.5.
`COC(=O)c1cccc(N2C(=O)c3ccc(Oc4cccc(NC(C)=O)c4)cc3C2=O)c1` [CBK033640] was tested, and the “Bottom (Emax)” value (Notch signalling; 14p Notch assay DR) was 91.5, the “AUC Notch” value (Notch signalling; replicates averaged) was 399.0 and the Hill-slope (γ-secretase complex; [7]) was 0.0705. For the same compound, the “AUC APP” value (γ-secretase complex) was 553.6.
In the case of `COc1cc(Nc2nc(-c3ccc(F)c(Cl)c3)cn3ccnc23)cc(OC)c1OC` [CBK037275], the “Bottom (Emax)” value (Notch signalling; 14p Notch assay DR) is reported as 90.9, the “AUC Notch” value (Notch signalling; replicates averaged) is reported as 361.0 and the Hill-slope (γ-secretase complex; [7]) is reported as -0.9. For the same compound, the “AUC APP” value (γ-secretase complex) was 479.3.
`CC(=O)Nc1cccc(-c2cn3ccnc3c(Nc3cccc(OC(F)(F)C(F)F)c3)n2)c1` [CBK037499] was tested, and the “Bottom (Emax)” value (Notch signalling; 14p Notch assay DR) was 77.1, the IC50 (Notch signalling; [5]) was over 40000 nM and the IC50 (Notch signalling; [6]) was over 40000 nM. The “AUC Notch” value (Notch signalling; replicates averaged) was 348.0, the Hill-slope (γ-secretase complex; [7]) was 0.0127 and the “AUC APP” value (γ-secretase complex) was 508.5.
In the case of `O=C(O)c1ccccc1C(=O)N1CCC2(CC1)OCCc1c2[nH]c2ccccc12` [CBK046981], the Hill-slope (γ-secretase complex; [7]) is reported as -0.0365.
With `O=C(O)c1cc(Cl)c(Cl)cc1C(=O)N1CCC2(CC1)OCCc1c2[nH]c2ccccc12` [CBK047019] the Hill-slope (γ-secretase complex; [7]) was -0.0304.
With `COc1ccc2[nH]c3c(c2c1)CCOC31CCN(C(=O)c2cccc3cccc(C(=O)O)c23)CC1` [CBK047020] the Hill-slope (γ-secretase complex; [7]) was 20.5.
Work on `O=C(O)c1cccc2cccc(C(=O)N3CCC4(CC3)OCCc3c4[nH]c4ccccc34)c12` [CBK047027] yielded a Hill-slope (γ-secretase complex; [7]) of -0.9.
Work on `COc1ccc2[nH]c3c(c2c1)CCOC31CCN(C(=O)c2ccccc2C(=O)O)CC1` [CBK047213] yielded a Hill-slope (γ-secretase complex; [7]) of -8.4.
With `COc1ccc(-c2cn3ccnc3c(Nc3cc(OC)c(OC)c(OC)c3)n2)cc1OC` [CBK066261] the Hill-slope (γ-secretase complex; [7]) was 0.0544.
`COc1cc(Nc2nc(-c3ccccc3)cn3ccnc23)cc(OC)c1OC` [CBK066345] gave a Hill-slope (γ-secretase complex; [7]) of 0.0472.
For `CC(c1nc(N)nc(Nc2ccccc2)n1)N1CCC(NC(=O)c2ccccc2)CC1` (centres unmarked) [CBK233672], the Hill-slope (γ-secretase complex; [7]) was 0.274.
`COc1ccc2cc(C(=O)N3Cc4cn(CCO)nc4C3)n(C)c2c1` [CBK306707] gave a Hill-slope (γ-secretase complex; [7]) of 0.423.
`CCn1ccc(CN(CCOC)C(=O)c2cc3c(Cl)cccc3[nH]2)n1` [CBK306903] was tested, and the Hill-slope (γ-secretase complex; [7]) was 3.84e-13 and the curve fit information (γ-secretase complex; [7]) was “IC50 indeterminate”.
In the case of `O=C(O)c1cccc(-c2noc(-c3ccccc3F)n2)c1` [PTC-124, reference compound], the “signal reduced by” value (Notch signalling; luciferase inhibitor controls in three-dose regimen (1.25, 10 and 25 µM), Supplemental Fig. 2G) is reported as 83%.

From publication PMC13242511, “Disrupting Notch signalling by a small molecule inhibiting dihydroorotate dehydrogenase activity” (Scientific Reports, 2026)
